The subject of test [1] is MA-46 (MA) (DNA, aptamer) CTTACGACTCAGGCATTTTGCCGGGTAACGAAGTTACTGTCGTAAG
As to the kind of experiment: ITC. The note with it: 20 mM Na+, 5 mM Mg2+.

Test [2] deals with SCA2.1 (DNA, aptamer) CTTACGACCTTAAGTGGGGTTCGGGTGGAGTTTATGGGGTCGTAAG
As to the kind of experiment: ITC. To be noted: 20 mM Na+, 0.5 mM Mg2+; 10 mM Tris-HCl pH 7.4, 23 °C; one-site model.

In test [3] the test system is Dopamine Aptamer (DNA, aptamer) CGACGCCAGTTTGAAGGTTCGTTCGCAGGTGTGGAGTGACGTCG
To be noted: 140 mM Na+, 4 mM K+, 2 mM Mg2+; 10 mM phosphate pH 7.4, 25 °C; 200 μM ligand.

Test [4] relates to SCA2.1 (DNA, aptamer) CTTACGACCTTAAGTGGGGTTCGGGTGGAGTTTATGGGGTCGTAAG
To be noted: 20 mM Na+, 0.5 mM Mg2+; 10 mM Tris-HCl pH 7.4, 25 °C; 50 μM ligand.

Test [5] relates to MMC1 (DNA, aptamer) CTTACGACCAGGGTTGGTTTCATCGGTGGTGTAATATGGTCGTAAG
As to the kind of experiment: ITC. To be noted: 20 mM Na+, 0.5 mM Mg2+.

The subject of test [6] is Dopamine Aptamer (DNA, aptamer) CGACGCCAGTTTGAAGGTTCGTTCGCAGGTGTGGAGTGACGTCG
As to the kind of experiment: T5 Exo/Exo I digestion, SYBR Gold fluorescence. To be noted: 140 mM Na+, 4 mM K+, 2 mM Mg2+; 10 mM phosphate pH 7.4, 25 °C; 200 μM ligand.

The subject of test [7] is ATP-33 (DNA, aptamer) CGCACCTGGGGGAGTATTGCGGAGGAAGGTGCG
As to the kind of experiment: T5 Exo digestion, PAGE. To be noted: 10 mM Mg2+; 10 mM Tris-HCl pH 7.4, 25 °C; 250 μM ligand.

The subject of test [8] is ATP-28 (DNA, aptamer) CTGGGGGAGTATTGCGGAGGAAGGTGCG
As to the kind of experiment: ITC. The note with it: 10 mM Mg2+; 10 mM Tris-HCl pH 7.4, 23 °C; sequential model, site 1 of 2.

For test [9], the system named is MA-41 (DNA, aptamer) GACTCAGGCATTTTGCCGGGTAACGAAGTTACTGTCGTAAG
As to the kind of experiment: ITC. The note with it: 20 mM Na+, 5 mM Mg2+; 10 mM Tris-HCl pH 7.4, 23 °C; one-site model.

Test [10] relates to MA-Mutant (DNA, aptamer) CTTACGACGCAGGCATTTTGCCGGGTAACGAAGTTACTGTCGTAAG
As to the kind of experiment: ITC. To be noted: 20 mM Na+, 5 mM Mg2+.

Test [11] relates to MMC5 (DNA, aptamer) CTTACCGACTATATGGGCAGTATCGTCTAGTGCCTAAGGGTCGTAAG
As to the kind of experiment: continuous-injection ITC and exonuclease assay. To be noted: 20 mM Na+, 0.5 mM Mg2+; 10 mM Tris-HCl pH 7.4, 23 °C; 1000 μM ligand in syringe; very weak or no binding.

Test [12] deals with MMC1-Mutant (DNA, aptamer) CTTACGACCAGGGTTGGTTTCACCGGTGGTGTAATATGGTCGTAAG
As to the kind of experiment: ITC. To be noted: 20 mM Na+, 0.5 mM Mg2+; 10 mM Tris-HCl pH 7.4, 23 °C; 2000 μM ligand in syringe.

For test [13], the system named is MMC4 (DNA, aptamer) CTTACGAAGCAGGTGGGTAGGATAGTGTGTGTGCTGTCGTCGTAAG
As to the kind of experiment: continuous-injection ITC and exonuclease assay. The note with it: 20 mM Na+, 0.5 mM Mg2+.

Test [14] concerns MMC1-42 (DNA, aptamer) CGACCAGGGTTGGTTTCATCGGTGGTGTAATATGGTCGTAAG
As to the kind of experiment: ITC. To be noted: 20 mM Na+, 0.5 mM Mg2+; 10 mM Tris-HCl pH 7.4, 23 °C; one-site fit, half racemate concentration stated for MMC1 titrations.

Test [15] has as its system MMC2 (DNA, aptamer) CTTACGACCAGGGTTGGTCTCATCGGTGGTGTAATATGGTCGTAAG
As to the kind of experiment: continuous-injection ITC and exonuclease assay. The note with it: 20 mM Na+, 0.5 mM Mg2+.

For test [16], the system named is MMC3 (DNA, aptamer) CTTACGGCCAGGGTTGGTCTCATCGGTGGTGTAATATGGTCGTAAG
As to the kind of experiment: continuous-injection ITC and exonuclease assay. To be noted: 20 mM Na+, 0.5 mM Mg2+.

[17] abbreviates: 10 mM Tris-HCl pH 7.4, 23 °C, 1000 μM ligand in syringe.
Where [18] appears, read: 10 mM Tris-HCl pH 7.4, 23 °C, one-site model.

Read-outs that look alike come from different tables or passages of the source.

What is called Kd is the constant that tells how readily two partners part at equilibrium. Lower therefore signals a tighter complex. With `CCN(CC)CC(=O)Nc1c(C)cccc1C`, the Kd in [1] (setting [17]) is greater than 1000 µM.
As to `CN(C)CCCN1c2ccccc2Sc2ccc(Cl)cc21`, in [1] (setting [18]), the Kd was found to be 0.6 ± 0.1 µM.
As for `CNC(C)Cc1ccc2c(c1)OCO2` (stereo not drawn), the Kd in test [1] (setting [18]) came out at 103 ± 4 µM; in test [2], 24.5 ± 0.9 µM. Further, in [3], the binding result was “no”.
In the case of `CN[C@@H](C)Cc1ccccc1`, the Kd in [1] was greater than 1000 µM. Besides, the binding entry in [4] was “no”.
`CN[C@@H](C)[C@H](O)c1ccccc1`: the Kd in [2] is 64 ± 3 µM.
`COC(=O)[C@H]1[C@@H](OC(=O)c2ccccc2)C[C@@H]2CC[C@H]1N2C`: the binding result in [4] is “no”.
`NCCc1c[nH]c2ccc(O)cc12` registered a Kd in test [1] (setting [18]) of 55 ± 2 µM.
Regarding `NCCc1ccc(O)c(O)c1`, the Kd in test [5] (setting [17]) is greater than 1000 µM. Moreover, in test [6], the binding entry is on record as “yes”.
`N[C@@H](Cc1ccc(O)cc1)C(=O)O`: in [6], the binding entry is on record as “no”.
With `Nc1ccn([C@@H]2O[C@H](COP(=O)(O)OP(=O)(O)OP(=O)(O)O)[C@@H](O)[C@H]2O)c(=O)n1`, the binding entry in [7] is “no”.
Turning to `Nc1nc2c(ncn2[C@@H]2O[C@H](COP(=O)(O)OP(=O)(O)OP(=O)(O)O)[C@@H](O)[C@H]2O)c(=O)[nH]1`, the binding result in test [7] is listed as “no”.
For `Nc1ncnc2c1ncn2[C@@H]1O[C@H](COP(=O)(O)OP(=O)(O)OP(=O)(O)O)[C@@H](O)[C@H]1O`, in [8], the Kd1 was 4.1 ± 0.2 µM. Moreover, the binding entry in test [7] was “yes”.
Regarding `O=c1ccn([C@@H]2O[C@H](COP(=O)(O)OP(=O)(O)OP(=O)(O)O)[C@@H](O)[C@H]2O)c(=O)[nH]1`, in test [7], the binding entry is on record as “no”.
Take `CCCC(C(=O)c1ccc2c(c1)OCO2)N1CCCC1` (racemic): the results for the Kd in test [1] (setting [18]) and in test [9] were 18.8 ± 1.4 µM and 24.8 ± 0.7 µM, respectively. Besides, the binding result in test [4] is recorded as “yes”; in test [10], “no”.
Turning to `CCNC(C)C(=O)c1ccc2c(c1)OCO2` (racemic), the Kd in test [1] (setting [18]) was determined as 61 ± 2 µM; in test [5], 254 ± 22 µM.
Consider `CNC(C)C(=O)c1ccc(C)cc1` (racemic), for which the binding entry is listed as “no” in [11]; “no” in test [12]; “yes” in test [13]; “yes” in test [15]; “yes” in test [16]. The Kd in test [5] (10 mM Tris-HCl pH 7.4, 23 °C, one-site fit with half the racemate concentration) is 15 ± 1.3 µM; in test [14], 6.6 ± 0.7 µM.
In test [5], `CNC(C)C(=O)c1ccc(F)cc1` (racemic) had a Kd greater than 1000 µM.
As to `CNC(C)C(=O)c1ccc(OC)cc1` (racemic), the Kd in [5] (10 mM Tris-HCl pH 7.4, 23 °C, 10-fold lower affinity than mephedrone, half racemate concentration) amounted to 146 ± 34 µM.
On to `CNC(C)C(=O)c1ccc2c(c1)OCO2` (racemic), for which the Kd in [5] is 275 ± 17 µM.
The same measure, in the same setting: to `CNC(C)C(=O)c1cccc(C)c1` (racemic) belongs greater than 1000 µM; to `CNC(C)C(=O)c1ccccc1` (racemic), 654 ± 61 µM.

The values above are taken from paper PMC7672472 (2020).
